US10131652B2, “Pyrimidinyloxy benzene derivatives as herbicides” (E. I. DU PONT DE NEMOURS AND COMPANY, priority 2014, dated 2018)
Where two headings read alike, the source gives them in different places.

Experiments:
Test in all cases: Test F pre-/postemergence plant response
Type in all cases: in vivo
[1] = test system: yellow nutsedge (Cyperus esculentus); settings: Cyperus, pre-emergence, scale 0 to 100, read-out: Plant response rating, Nutsedge, Yellow
Outline: (§1)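 Seeds were sown in silt loam soil and sprayed preemergence; separately, plants at the 1- to 4-leaf stage (2 to 18 cm) received postemergence sprays. Test chemicals were in a non-phytotoxic solvent mixture with surfactant. After 14 to 21 days in a greenhouse, injury was visually rated 0 (no effect) to 100 (complete control) against untreated controls.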

[2] = test system: velvetleaf (Abutilon theophrasti); settings: Abutilon theophrasti, pre-emergence, scale 0 to 100, read-out: Plant response rating, Velvetleaf
Outline: as §1

[3] = test system: lambsquarters (Chenopodium album); settings: Chenopodium album, pre-emergence, scale 0 to 100, read-out: Plant response rating, Lambsquarters
Outline: as §1

[4] = test system: palmer pigweed (Amaranthus palmeri); settings: Amaranthus palmeri, scale 0 to 100, read-out: Plant response rating, Pigweed, Palmer
Outline: as §1

corn (Zea mays) = settings: Zea mays, scale 0 to 100
Outline: as §1

[5] = test system: surinam grass (Brachiaria decumbens); settings: Urochloa decumbens, pre-emergence, scale 0 to 100, read-out: Plant response rating, Surinam Grass
Outline: as §1

[6] = test system: goosegrass (Eleusine indica); settings: Eleusine indica, pre-emergence, scale 0 to 100, read-out: Plant response rating, Goosegrass
Outline: as §1

[7] = test system: sandbur (southern sandbur, Cenchrus echinatus); settings: Cenchrus echinatus, scale 0 to 100, read-out: Plant response rating, Sandbur
Outline: as §1

[8] = test system: ragweed (common ragweed, Ambrosia elatior); settings: Ambrosia artemisiifolia, pre-emergence, scale 0 to 100, read-out: Plant response rating, Ragweed
Outline: as §1

[9] = test system: arrowleaf sida (Sida rhombifolia); settings: Sida rhombifolia, scale 0 to 100, read-out: Plant response rating, Arrowleaf Sida
Outline: as §1

soybean (Glycine max) = settings: Glycine max, scale 0 to 100, read-out: Plant response rating, Soybean
Outline: as §1

[10] = test system: waterhemp (common waterhemp, Amaranthus rudis); settings: Amaranthus tuberculatus, scale 0 to 100, read-out: Plant response rating, Waterhemp
Outline: as §1

[11] = test system: Italian ryegrass (Lolium multiflorum); settings: Lolium multiflorum, scale 0 to 100, read-out: Plant response rating, Ryegrass, Italian; for pest or weed control at 16 g/ha: 16 g ai/ha; for pest or weed control at 31 g/ha: 31 g ai/ha; for pest or weed control at 125 g/ha: 125 g ai/ha
Outline: as §1

[12] = test system: hairy beggarticks (Bidens pilosa); settings: Bidens pilosa, scale 0 to 100, read-out: Plant response rating, Beggarticks
Outline: as §1

[13] = test system: dayflower (Virginia (VA) dayflower, Commelina virginica); settings: Commelina virginica, scale 0 to 100, read-out: Plant response rating, Dayflower, VA
Outline: as §1

[14] = test system: barnyardgrass (Echinochloa crus-galli); settings: Echinochloa crus-galli, scale 0 to 100, read-out: Plant response rating, Barnyardgrass
Outline: as §1

[15] = post-emergence, 8 g ai/ha Postemergence
[16] = post-emergence, 16 g ai/ha Postemergence
[17] = post-emergence, 31 g ai/ha Postemergence
[18] = post-emergence, 62 g ai/ha Postemergence
[19] = post-emergence, 125 g ai/ha Postemergence
[20] = pre-emergence, 8 g ai/ha Preemergence
[21] = pre-emergence, 16 g ai/ha Preemergence
[22] = pre-emergence, 31 g ai/ha Preemergence
[23] = pre-emergence, 125 g ai/ha Preemergence
[24] = pre-emergence, 62 g ai/ha Preemergence

## FC(F)(F)c1cc(-c2ccccc2Oc2ncc(Cl)cn2)no1 [Compound 200, 5-chloro-2-[2-[5-(trifluoromethyl)-3-isoxazolyl]phenoxy]pyrimidine]
[1]; 8 g ai/ha Preemergence
  pest or weed control at 8 g/ha: 0%
[1]; 16 g ai/ha Preemergence
  pest or weed control at 16 g/ha: 0%
[1]; 31 g ai/ha Preemergence
  pest or weed control at 31 g/ha: 0%
[1]; 125 g ai/ha Preemergence
  pest or weed control at 125 g/ha: 35%
[1]; Preemergence
  pest or weed control at 62 g/ha: 10%
[2]; 8 g ai/ha Preemergence
  pest or weed control at 8 g/ha: 0%
[2]; 16 g ai/ha Preemergence
  pest or weed control at 16 g/ha: 25%
[2]; 31 g ai/ha Preemergence
  pest or weed control at 31 g/ha: 80%
[2]; 125 g ai/ha Preemergence
  pest or weed control at 125 g/ha: 100%
[2]; Preemergence
  pest or weed control at 62 g/ha: 100%
[3]; 8 g ai/ha Preemergence
  pest or weed control at 8 g/ha: 0%
[3]; 16 g ai/ha, Preemergence
  pest or weed control at 16 g/ha: 0%
[3]; 31 g ai/ha, Preemergence
  pest or weed control at 31 g/ha: 98%
[3]; 125 g ai/ha, Preemergence
  pest or weed control at 125 g/ha: 100%
[3]; Preemergence
  pest or weed control at 62 g/ha: 98%
[4]; [15]
  pest or weed control at 8 g/ha: 85%
[4]; [16]
  pest or weed control at 16 g/ha: 95%
[4]; [17]
  pest or weed control at 31 g/ha: 98%
[4]; [18]
  pest or weed control at 62 g/ha: 100%
[4]; [19]
  pest or weed control at 125 g/ha: 100%
[4]; [20]
  pest or weed control at 8 g/ha: 0%
[4]; [21]
  pest or weed control at 16 g/ha: 85%
[4]; [22]
  pest or weed control at 31 g/ha: 100%
[4]; [23]
  pest or weed control at 125 g/ha: 100%
[4]; pre-emergence, Preemergence
  pest or weed control at 62 g/ha: 100%
Corn (Zea mays); [15]
  Corn plant response rating (crop injury, 0 = no effect, 100 = complete kill) at 8 g/ha: 0%
Corn (Zea mays); [16]
  Corn plant response rating (crop injury, 0 = no effect, 100 = complete kill) at 16 g/ha: 0%
Corn (Zea mays); [17]
  Corn plant response rating (crop injury, 0 = no effect, 100 = complete kill) at 31 g/ha: 10%
Corn (Zea mays); [18]
  Corn plant response rating (crop injury, 0 = no effect, 100 = complete kill) at 62 g/ha: 20%
Corn (Zea mays); [19]
  Corn plant response rating (crop injury, 0 = no effect, 100 = complete kill) at 125 g/ha: 25%
Corn (Zea mays); [20]
  Corn plant response rating (crop injury, 0 = no effect, 100 = complete kill) at 8 g/ha: 0%
Corn (Zea mays); [21]
  Corn plant response rating (crop injury, 0 = no effect, 100 = complete kill) at 16 g/ha: 0%
Corn (Zea mays); [22]
  Corn plant response rating (crop injury, 0 = no effect, 100 = complete kill) at 31 g/ha: 0%
Corn (Zea mays); [24]
  Corn plant response rating (crop injury, 0 = no effect, 100 = complete kill) at 62 g/ha: 0%
Corn (Zea mays); [23]
  Corn plant response rating (crop injury, 0 = no effect, 100 = complete kill) at 125 g/ha: 0%
[5]; 8 g ai/ha Preemergence
  pest or weed control at 8 g/ha: 0%
[5]; 16 g ai/ha Preemergence
  pest or weed control at 16 g/ha: 0%
[5]; 31 g ai/ha Preemergence
  pest or weed control at 31 g/ha: 0%
[5]; 125 g ai/ha Preemergence
  pest or weed control at 125 g/ha: 35%
[5]; Preemergence
  pest or weed control at 62 g/ha: 10%
[6]; 8 g ai/ha Preemergence
  pest or weed control at 8 g/ha: 10%
[6]; 16 g ai/ha Preemergence
  pest or weed control at 16 g/ha: 70%
[6]; 31 g ai/ha Preemergence
  pest or weed control at 31 g/ha: 80%
[6]; 125 g ai/ha Preemergence
  pest or weed control at 125 g/ha: 98%
[6]; Preemergence
  pest or weed control at 62 g/ha: 95%
[7]; [15]
  pest or weed control at 8 g/ha: 0%
[7]; [16]
  pest or weed control at 16 g/ha: 0%
[7]; [17]
  pest or weed control at 31 g/ha: 0%
[7]; [18]
  pest or weed control at 62 g/ha: 0%
[7]; [19]
  pest or weed control at 125 g/ha: 5%
[7]; [20]
  pest or weed control at 8 g/ha: 0%
[7]; [21]
  pest or weed control at 16 g/ha: 5%
[7]; [22]
  pest or weed control at 31 g/ha: 5%
[7]; [23]
  pest or weed control at 125 g/ha: 75%
[7]; pre-emergence, Preemergence
  pest or weed control at 62 g/ha: 40%
[8]; 8 g ai/ha Preemergence
  pest or weed control at 8 g/ha: 0%
[8]; 16 g ai/ha Preemergence
  pest or weed control at 16 g/ha: 0%
[8]; 31 g ai/ha Preemergence
  pest or weed control at 31 g/ha: 10%
[8]; 125 g ai/ha Preemergence
  pest or weed control at 125 g/ha: 40%
[8]; Preemergence
  pest or weed control at 62 g/ha: 35%
[9]; [15]
  pest or weed control at 8 g/ha: 65%
[9]; [16]
  pest or weed control at 16 g/ha: 75%
[9]; [17]
  pest or weed control at 31 g/ha: 85%
[9]; [18]
  pest or weed control at 62 g/ha: 95%
[9]; [19]
  pest or weed control at 125 g/ha: 95%
[9]; [20]
  pest or weed control at 8 g/ha: 0%
[9]; [21]
  pest or weed control at 16 g/ha: 65%
[9]; [22]
  pest or weed control at 31 g/ha: 100%
[9]; [24]
  pest or weed control at 62 g/ha: 100%
[9]; [23]
  pest or weed control at 125 g/ha: 100%
Soybean (Glycine max); [15]
  plant injury at 8 g/ha: 15%
Soybean (Glycine max); [16]
  plant injury at 16 g/ha: 20%
Soybean (Glycine max); [17]
  plant injury at 31 g/ha: 40%
Soybean (Glycine max); [18]
  plant injury at 62 g/ha: 65%
Soybean (Glycine max); [19]
  plant injury at 125 g/ha: 90%
Soybean (Glycine max); [20]
  plant injury at 8 g/ha: 0%
Soybean (Glycine max); [21]
  plant injury at 16 g/ha: 0%
Soybean (Glycine max); [22]
  plant injury at 31 g/ha: 20%
Soybean (Glycine max); [23]
  plant injury at 125 g/ha: 50%
Soybean (Glycine max); pre-emergence, Preemergence
  plant injury at 62 g/ha: 30%
[10]; [15]
  pest or weed control at 8 g/ha: 75%
[10]; [16]
  pest or weed control at 16 g/ha: 80%
[10]; [17]
  pest or weed control at 31 g/ha: 95%
[10]; [18]
  pest or weed control at 62 g/ha: 98%
[10]; [19]
  pest or weed control at 125 g/ha: 100%
[10]; [20]
  pest or weed control at 8 g/ha: 70%
[10]; [21]
  pest or weed control at 16 g/ha: 98%
[10]; [22]
  pest or weed control at 31 g/ha: 100%
[10]; [23]
  pest or weed control at 125 g/ha: 100%
[10]; pre-emergence, Preemergence
  pest or weed control at 62 g/ha: 100%
[11]; [15]
  pest or weed control at 8 g/ha: 0%
[11]; post-emergence, Postemergence
  pest or weed control at 16 g/ha: 0%
  pest or weed control at 31 g/ha: 0%
  pest or weed control at 125 g/ha: 20%
[11]; post-emergence, 62 g ai/ha, Postemergence
  pest or weed control at 62 g/ha: 15%
[11]; [20]
  pest or weed control at 8 g/ha: 0%
[11]; pre-emergence, Preemergence
  pest or weed control at 16 g/ha: 0%
  pest or weed control at 31 g/ha: 0%
  pest or weed control at 125 g/ha: 40%
  pest or weed control at 62 g/ha: 20%
[12]; [15]
  pest or weed control at 8 g/ha: 0%
[12]; [16]
  pest or weed control at 16 g/ha: 0%
[12]; [17]
  pest or weed control at 31 g/ha: 5%
[12]; [18]
  pest or weed control at 62 g/ha: 10%
[12]; [19]
  pest or weed control at 125 g/ha: 10%
[12]; [20]
  pest or weed control at 8 g/ha: 0%
[12]; [21]
  pest or weed control at 16 g/ha: 0%
[12]; [22]
  pest or weed control at 31 g/ha: 0%
[12]; [24]
  pest or weed control at 62 g/ha: 0%
[12]; [23]
  pest or weed control at 125 g/ha: 0%
[13]; [15]
  pest or weed control at 8 g/ha: 0%
[13]; [16]
  pest or weed control at 16 g/ha: 0%
[13]; [17]
  pest or weed control at 31 g/ha: 25%
[13]; [18]
  pest or weed control at 62 g/ha: 15%
[13]; [19]
  pest or weed control at 125 g/ha: 35%
[13]; [20]
  pest or weed control at 8 g/ha: 0%
[13]; [21]
  pest or weed control at 16 g/ha: 15%
[13]; [22]
  pest or weed control at 31 g/ha: 50%
[13]; [24]
  pest or weed control at 62 g/ha: 70%
[13]; [23]
  pest or weed control at 125 g/ha: 90%
[14]; [15]
  pest or weed control at 8 g/ha: 0%
[14]; [16]
  pest or weed control at 16 g/ha: 0%
[14]; [17]
  pest or weed control at 31 g/ha: 0%
[14]; [18]
  pest or weed control at 62 g/ha: 15%
[14]; [19]
  pest or weed control at 125 g/ha: 25%
[14]; [20]
  pest or weed control at 8 g/ha: 0%
[14]; [21]
  pest or weed control at 16 g/ha: 0%
[14]; [22]
  pest or weed control at 31 g/ha: 0%
[14]; [24]
  pest or weed control at 62 g/ha: 30%
[14]; [23]
  pest or weed control at 125 g/ha: 60%
